Six compounds from PubChem BioAssay (NCI) can be followed below.

For orientation: GI50 means the concentration at which growth is held to half of that of the control. The TGI is the concentration giving total growth inhibition. A lower TGI goes with greater sensitivity of the cells.

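These data come from cells grown in 96-well plates and exposed to compound for 48 hours at five concentrations. GI50 = concentration required for 50% inhibition of growth. TGI marks complete inhibition of growth.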

What all share (test): DTP human tumour cell line panel, 48 h
Assay [1] has as its system NCI-H522 lung.
In assay [2] the test system is OVCAR-8 ovarian.
For assay [3], the system named is NCI-H460 lung.
Assay [4] has as its system DU-145 prostate.
Assay [5] relates to NCI/ADR-RES ovarian.
Assay [6] concerns SK-MEL-2 melanoma.
Assay [7] has as its system MDA-MB-435.
Assay [8] has as its system UO-31 renal.
The subject of assay [9] is OVCAR-3 ovarian.
Assay [10] deals with SR leukemia.

With `Cn1cc(C2=C(c3ccccc3[N+](=O)[O-])C(=O)NC2=O)c2ccccc21`, the GI50 in assay [1] is 5.78 µM; in [2] it was 6.07 µM; in [3], 4.85 µM; in assay [4], 6.13 µM; in assay [5] it was 6.32 µM; in assay [6], 2.92 µM. The GI50 in [7] was 4.82 µM; in assay [8] it was 5.28 µM; in [9] it was 2.32 µM; in assay [10] it was 2.33 µM. For the same compound, the TGI is 18.1 µM in [1]; greater than 25 µM in assay [2]; greater than 25 µM in assay [3]; greater than 25 µM in assay [4]; greater than 21.6 µM in assay [5]; 9.55 µM in assay [6]. Also, the TGI in [7] is greater than 25 µM; in assay [8], greater than 20.5 µM; in assay [9], greater than 21.8 µM; in [10], 12.9 µM.
For the compound `CCOC(=O)[C@@H](C)C[C@H](Cc1ccccc1)NC(=O)c1nc([C@@H](C[C@H](C(C)C)N(C)C(=O)[C@@H](NC(=O)[C@H]2CCCCN2C)C(C)C)OC(C)=O)sc1CCOCc1ccccc1`, the GI50 is 0.029 µM in assay [1]; 0.216 µM in [2]; 0.0425 µM in assay [3]; 0.0404 µM in [4]; 0.503 µM in assay [5]; 0.0639 µM in [6]. In addition, the GI50 in assay [7] was 0.0123 µM; in assay [8], 0.586 µM; in [9], 0.0396 µM; in [10], 0.0313 µM. Besides, the TGI amounted to 0.319 µM in [1]; 2.08 µM in assay [2]; 1.4 µM in assay [3]; 1.08 µM in assay [4]; 3.98 µM in assay [5]; 2.39 µM in [6]. For the same compound, the TGI in [7] worked out at 0.0478 µM; in assay [8] it was 2.24 µM; in assay [10], 1.87 µM.
Take `N#Cc1c(NC(=O)NCc2ccccc2)sc2c1CCCC2`: the GI50 in assay [1] is 0.559 µM; in assay [2], 2.29 µM; in assay [3], 0.407 µM; in assay [4], 0.801 µM; in assay [5], 0.424 µM; in [6] it was 5.08 µM. Besides, the GI50 in assay [7] was 0.215 µM; in assay [8] it was 0.74 µM; in assay [9], 0.344 µM; in [10], 0.35 µM. In addition, the TGI in [1] is greater than 100 µM; in [2], greater than 100 µM; in [3], greater than 100 µM; in assay [4], greater than 33.5 µM; in assay [5] it was greater than 34.1 µM; in assay [6], greater than 100 µM. Also, the TGI in [7] was 0.595 µM; in assay [8] it was greater than 100 µM; in assay [9], 1.87 µM; in [10] it was greater than 100 µM.
Regarding `COc1ccc(/C=C(/C(=O)N2CCN(c3ccccc3)CC2)c2cc(OC)c(OC)c(OC)c2)cc1N`, the GI50 is 0.242 µM in [1]; 0.375 µM in [2]; 0.364 µM in assay [3]; 0.531 µM in [4]; 0.623 µM in assay [5]; 0.725 µM in [6]. The GI50 in assay [7] was 0.138 µM; in [8] it was 0.812 µM; in assay [9] it was 0.366 µM; in [10], 0.409 µM. Besides, the TGI in assay [1] is 0.91 µM; in [2], greater than 100 µM; in [3], greater than 100 µM; in assay [4], greater than 100 µM; in assay [5] it was greater than 100 µM; in [6], greater than 100 µM. Besides, the TGI in assay [7] is 0.419 µM; in assay [8], greater than 100 µM; in assay [9], greater than 100 µM; in [10], greater than 100 µM.
As to `CN1CCC(COc2cnc(-c3cccc(Cn4nc(-c5cccc(C#N)c5)ccc4=O)c3)nc2)CC1`, the GI50 in [1] was 2.27 µM; in [2], 3.27 µM; in assay [3], 3.58 µM; in assay [4] it was 4.76 µM; in assay [5] it was 7.41 µM; in [6] it was 6.66 µM. The GI50 was 2.74 µM in [7], 2.26 µM in [8], 2.45 µM in [9] and 2.08 µM in [10]. Also, the TGI in assay [1] was 5.06 µM; in [2] it was 12.8 µM; in assay [3] it was 12.3 µM; in [4], 30.5 µM; in [5] it was 28.1 µM; in assay [6], 15.1 µM. Also, the TGI in assay [7] is 9.47 µM; in [8], 5.79 µM; in assay [9], 6.06 µM; in assay [10], 4.49 µM.
As for `Cc1ccc(Cl)cc1Nc1nc(C(F)(F)F)ccc1C(=O)N/N=C/c1cccnc1`, the GI50 is 6.64 µM in assay [1]; 3.05 µM in assay [2]; 2.76 µM in assay [3]; 3.38 µM in [4]; 3.21 µM in assay [5]; 3.74 µM in assay [6]. Also, the GI50 in [7] is 3.99 µM; in assay [8], 3.51 µM; in assay [9], 2.45 µM; in assay [10], 0.148 µM. Moreover, the TGI in assay [1] amounted to 22.5 µM; in [2], 15.1 µM; in assay [3], 11.1 µM; in [4], 9.73 µM; in assay [5] it was 20.3 µM; in [6], 15.3 µM. Also, the TGI came to 15.7 µM in assay [7], 16.2 µM in assay [8] and 14.3 µM in assay [9].
